Values of other authors, collected in patent EP1750675B1, “STABLE ORAL PHARMACEUTICAL COMPOSITIONS OF BUP[…] SALT THEREOF” (Galephar M/F, priority 2004, dated 2005).
Counter-ions that a name gives are not always drawn. Like-named read-outs stand apart in the source and are kept apart here.

How the values were obtained:
[1] = 20°C
[2] = opioid agonist/antagonist

Row | Structure (SMILES) | stability (at high temperatures (up to 120°C)) | stability (in acid and alkaline conditions) | stability (in neutral solutions (pH 5-7)) | solubility ([1]; in cyclohexane) [mg/mL] | solubility ([1]; in ethanol) [mg/mL] | solubility ([1]; in glacial acetic acid) | solubility ([1]; in water) | potency relative to morphine [2]
1 | CO[C@]12CC[C@@]3(C[C@@H]1[C@](C)(O)C(C)(C)C)[C@H]1Cc4ccc(O)c5c4[C@@]3(CCN1CC1CC1)[C@H]2O5 [buprenorphine hydrochloride, Buprenorphine hydrochloride] | stable | significant degradation | stable | ~0.02 | ~42 | more than 500 mg/ml | about 20 mg/ml | –
2 | CO[C@]12CC[C@@]3(C[C@@H]1[C@](C)(O)C(C)(C)C)[C@H]1Cc4ccc(O)c5c4[C@@]3(CCN1CC1CC1)[C@H]2O5 [Buprenorphine] | – | – | – | – | – | – | – | about forty times as potent as morphine
